# Laboratory results: ChEMBL document CHEMBL3351696, “Design of chemically stable, potent, and efficacious MDM2 inhibitors that exploit the retro-mannich ring-opening-cyclization reaction mechanism in spiro-oxindoles” (J Med Chem, 2014)
# The source made the active and inactive calls. The calls are words filed in the database; no cut-off is given here.
# Columns and labels:
# SJSA-1 [1] = assay: cells; details: Homo sapiens
# physchem [2] = details: 1:1 CH3CN/H2O
# physchem [3] = details: 1:1 CH3CN/H2O; remark: listed apart in the source
# physchem [4] = details: 1:1 CH3CN/H2O; remark: listed apart in the source
# physchem [5] = details: 1:1 CH3CN/H2O; remark: listed apart in the source
# SJSA-1 [6] = details: Homo sapiens, 200 mg/kg
# cells [7] = details: Homo sapiens, HCT-116
# cells [8] = details: Homo sapiens, HCT-116; remark: listed apart in the source
# physchem [9] = details: 1:1 CH3CN/H2O solution
# physchem [10] = details: 1:1 MeOH/H2O solution
smiles,measurement,setting,value
O=C(N[C@H]1CC[C@H](O)CC1)[C@@H]1NC2(CCCC2)[C@@]2(C(=O)Nc3cc(Cl)ccc32)[C@H]1c1cccc(Cl)c1F,IC50,SJSA-1 [1],650 nM
O=C(N[C@H]1CC[C@H](O)CC1)[C@@H]1NC2(CCCCCC2)[C@@]2(C(=O)Nc3cc(Cl)ccc32)[C@H]1c1cccc(Cl)c1F,IC50,SJSA-1 [1],2100 nM
O=C(N[C@H]1CC[C@H](O)CC1)[C@@H]1NC2(CCC2)[C@@]2(C(=O)Nc3cc(Cl)ccc32)[C@H]1c1cccc(Cl)c1F,IC50,SJSA-1 [1],1600 nM
O=C(NCCN1CCOCC1)[C@@H]1NC2(CCC2)[C@@]2(C(=O)Nc3cc(Cl)ccc32)[C@H]1c1cccc(Cl)c1F,IC50,SJSA-1 [1],2300 nM
O=C(NCCN1CCOCC1)[C@@H]1NC2(CCC2)[C@]2(C(=O)Nc3cc(Cl)ccc32)[C@H]1c1cccc(Cl)c1F,IC50,SJSA-1 [1],1650 nM
O=C(NCCN1CCOCC1)[C@@H]1NC2(CCCCC2)[C@@]2(C(=O)Nc3cc(Cl)ccc32)[C@H]1c1cccc(Cl)c1F,IC50,SJSA-1 [1],300 nM
same,remaining at 0 h,physchem [2],100%
same,remaining at 24 h,physchem [3],100%
same,remaining at 72 h,physchem [4],99.6%
same,remaining at 144 h,physchem [5],99.2%
CC(C)(C)C[C@@H]1N[C@@H](C(=O)NCCN2CCOCC2)[C@H](c2cccc(Cl)c2F)[C@]12C(=O)Nc1cc(Cl)ccc12,remaining at 0 h,physchem [2],98.1%
same,remaining at 24 h,physchem [3],90.8%
same,remaining at 72 h,physchem [4],86.9%
same,remaining at 144 h,physchem [5],82.7%
CCC1(CC)N[C@@H](C(=O)N[C@H]2C[C@@](C)(O)C2)[C@H](c2cccc(Cl)c2F)[C@]12C(=O)Nc1cc(Cl)ccc12,IC50,SJSA-1 [1],> 10000 nM
CC1(C)N[C@@H](C(=O)N[C@H]2CC[C@H](O)CC2)[C@H](c2cccc(Cl)c2F)[C@]12C(=O)Nc1cc(Cl)ccc12,IC50,SJSA-1 [1],2900 nM
CCC1(CC)N[C@@H](C(=O)N[C@H]2CC[C@H](O)CC2)[C@H](c2cccc(Cl)c2F)[C@]12C(=O)Nc1cc(Cl)ccc12,IC50,SJSA-1 [1],5400 nM
O=C(N[C@H]1CC[C@H](O)CC1)[C@@H]1NC2(CCCCC2)[C@@]2(C(=O)Nc3cc(Cl)ccc32)[C@H]1c1cccc(Cl)c1F,TGI,SJSA-1 [6],Active
same,IC50,SJSA-1 [1],190 nM
same,IC50,cells [7],320 nM
same,IC50,cells [8],> 10000 nM
O=C(NCC[C@H](O)CO)[C@@H]1NC2(CCC2)[C@@]2(C(=O)Nc3cc(Cl)ccc32)[C@H]1c1cccc(Cl)c1F,IC50,SJSA-1 [1],2080 nM
CCC1(CC)N[C@@H](C(=O)NCCN2CCOCC2)[C@H](c2cccc(Cl)c2F)[C@]12C(=O)Nc1cc(Cl)ccc12,IC50,SJSA-1 [1],> 10000 nM
CC(C)(C)C[C@@H]1N[C@@H](C(=O)NCC[C@H](O)CO)[C@H](c2cccc(Cl)c2F)[C@]12C(=O)Nc1cc(Cl)ccc12,remaining at 0 h,physchem [2],97.5%
same,remaining at 24 h,physchem [3],95.8%
same,remaining at 72 h,physchem [4],95.7%
same,remaining at 144 h,physchem [5],91.4%
C[C@]1(O)C[C@@H](NC(=O)[C@@H]2NC3(CCC3)[C@]3(C(=O)Nc4cc(Cl)ccc43)[C@H]2c2cccc(Cl)c2F)C1,IC50,SJSA-1 [1],1460 nM
O=C(NCC[C@H](O)CO)[C@@H]1NC2(CCC2)[C@]2(C(=O)Nc3cc(Cl)ccc32)[C@H]1c1cccc(Cl)c1F,IC50,SJSA-1 [1],1670 nM
O=C(NCC[C@H](O)CO)[C@@H]1NC2(CCCCC2)[C@@]2(C(=O)Nc3cc(Cl)ccc32)[C@H]1c1cccc(Cl)c1F,IC50,SJSA-1 [1],200 nM
same,remaining at 0 h,physchem [2],100%
same,remaining at 24 h,physchem [3],100%
same,remaining at 72 h,physchem [4],100%
same,remaining at 144 h,physchem [5],100%
CC(C)(C)C[C@@H]1N[C@@H](C(=O)N[C@H]2C[C@@](C)(O)C2)[C@H](c2cccc(Cl)c2F)[C@]12C(=O)Nc1cc(Cl)ccc12,remaining at 0 h,physchem [2],100%
same,remaining at 24 h,physchem [3],99.6%
same,remaining at 72 h,physchem [4],98.6%
same,remaining at 144 h,physchem [5],97.7%
same,degraded at 168 h,physchem [9],2%
same,degraded at 168 h,physchem [10],2%
C[C@]1(O)C[C@@H](NC(=O)[C@@H]2NC3(CCC3)[C@@]3(C(=O)Nc4cc(Cl)ccc43)[C@H]2c2cccc(Cl)c2F)C1,IC50,SJSA-1 [1],1680 nM
CCCC1(CCC)N[C@@H](C(=O)N[C@H]2CC[C@H](O)CC2)[C@H](c2cccc(Cl)c2F)[C@]12C(=O)Nc1cc(Cl)ccc12,IC50,SJSA-1 [1],6900 nM
O=C(N[C@H]1CC[C@H](O)CC1)[C@@H]1NC2(CCC2)[C@]2(C(=O)Nc3cc(Cl)ccc32)[C@H]1c1cccc(Cl)c1F,IC50,SJSA-1 [1],2000 nM
C[C@]1(O)C[C@@H](NC(=O)[C@@H]2NC3(CCCCC3)[C@@]3(C(=O)Nc4cc(Cl)ccc43)[C@H]2c2cccc(Cl)c2F)C1,IC50,SJSA-1 [1],160 nM
same,remaining at 0 h,physchem [2],100%
same,remaining at 24 h,physchem [3],100%
same,remaining at 72 h,physchem [4],100%
same,remaining at 144 h,physchem [5],100%
O=C(O)c1ccc(NC(=O)[C@@H]2NC3(CCCCC3)[C@@]3(C(=O)Nc4cc(Cl)ccc43)[C@H]2c2cccc(Cl)c2F)cc1,IC50,SJSA-1 [1],100 nM
same,IC50,cells [7],250 nM
same,IC50,cells [8],> 10000 nM
CCC1(CC)N[C@@H](C(=O)NCC[C@H](O)CO)[C@H](c2cccc(Cl)c2F)[C@]12C(=O)Nc1cc(Cl)ccc12,IC50,SJSA-1 [1],> 10000 nM
